Common to all, as to format: functional
Experiment [1] in a line: Cytotoxicity against human SF539 cells assessed as cell growth at 50 nM after 48 hrs by SRB assay. The note with it: SF-539, 48 h, read-out: Activity. A general note: Sulforhodamine B stains cellular protein and so reports cell mass.
The next experiment deals with U-251. The experiment is described as follows: Cytotoxicity against human U251 cells assessed as cell growth at 50 nM after 48 hrs by SRB assay. The note with it: U-251, 48 h, read-out: Activity.
The subject of another experiment is Malme-3M. Nature of the experiment: Cytotoxicity against human MALME-3M cells assessed as cell growth at 50 nM after 48 hrs by SRB assay. The note with it: read-out: Activity.
The test system of experiment [2] is M14. The experiment is described as follows: Cytotoxicity against human M14 cells assessed as cell growth at 50 nM after 48 hrs by SRB assay. The settings on record: M14, 48 h, read-out: Activity.
The test system of another experiment is SK-MEL-28. The experiment is described as follows: Cytotoxicity against human SK-MEL-28 cells assessed as cell growth at 50 nM after 48 hrs by SRB assay. The settings on record: SK-MEL-28, 48 h, read-out: Activity.
For another experiment, the system named is ACHN. The experiment is described as follows: Cytotoxicity against human ACHN cells assessed as cell growth at 50 nM after 48 hrs by SRB assay. The settings on record: read-out: Activity.
Experiment [3] is described as follows: Cytotoxicity against human UACC257 cells assessed as cell growth at 50 uM after 48 hrs by SRB assay. The settings on record: UACC-257, 48 h, read-out: Activity.
Experiment [4] is described as follows: Cytotoxicity against human OVCAR4 cells assessed as cell growth at 0.5 uM after 48 hrs by SRB assay. The note with it: OVCAR-4, 48 h, read-out: Activity.
The test system of experiment [5] is MDA-MB-231. Nature of the experiment: Cytotoxicity against human MDA-MB-231 cells assessed as cell growth at 0.5 uM after 48 hrs by SRB assay. The note with it: MDA-MB-231, 48 h, read-out: Activity.
Another experiment deals with EKVX. The experiment is described as follows: Cytotoxicity against human EKVX cells assessed as cell growth at 5 uM after 48 hrs by SRB assay. The note with it: read-out: Activity.
A short description of experiment [6]: Cytotoxicity against human HOP92 cells assessed as cell growth at 5 uM after 48 hrs by SRB assay. The settings on record: HOP-92, 48 h, read-out: Activity.
Experiment [7] relates to SR. Nature of the experiment: Cytotoxicity against human SR cells assessed as cell growth at 5 nM after 48 hrs by SRB assay. The settings on record: read-out: Activity.
A short description of experiment [8]: Cytotoxicity against human HCT116 cells assessed as cell growth at 5 nM after 48 hrs by SRB assay. The settings on record: HCT-116, 48 h, read-out: Activity.
Experiment [9] in a line: Cytotoxicity against human SW620 cells assessed as cell growth at 5 nM after 48 hrs by SRB assay. The settings on record: SW-620, 48 h, read-out: Activity.
Experiment [10] can be described thus: Cytotoxicity against human UACC62 cells assessed as cell growth at 5 nM after 48 hrs by SRB assay. The note with it: UACC-62, 48 h, read-out: Activity.
Experiment [11] relates to MDA-MB-231. Nature of the experiment: Cytotoxicity against human MDA-MB-231 cells assessed as cell growth at 5 nM after 48 hrs by SRB assay. The settings on record: MDA-MB-231, 48 h, read-out: Activity.
For a further experiment, the system named is T47D. Nature of the experiment: Cytotoxicity against human T47D cells assessed as cell growth at 5 nM after 48 hrs by SRB assay. The note with it: read-out: Activity.
A further experiment relates to SK-MEL-2. Nature of the experiment: Cytotoxicity against human SK-MEL-2 cells assessed as cell growth at 5 uM after 48 hrs by SRB assay. The settings on record: SK-MEL-2, 48 h, read-out: Activity.
A short description of experiment [12]: Cytotoxicity against human UACC257 cells assessed as cell growth at 5 uM after 48 hrs by SRB assay. The note with it: UACC-257, 48 h, read-out: Activity.
Experiment [13] in a line: Cytotoxicity against human NCI-ADR-RES cells assessed as cell growth at 5 uM after 48 hrs by SRB assay. The note with it: read-out: Activity.
Experiment [14] can be described thus: Cytotoxicity against human DU145 cells assessed as cell growth at 5 uM after 48 hrs by SRB assay. The settings on record: DU-145, 48 h, read-out: Activity.
Experiment [15] deals with KM12. Nature of the experiment: Cytotoxicity against human KM12 cells assessed as cell growth at 10^-7 M after 48 hrs by SRB assay. The note with it: KM12, 48 h, read-out: Activity.
Experiment [16] can be described thus: Cytotoxicity against human SF295 cells assessed as cell growth at 10^-7 M after 48 hrs by SRB assay. The settings on record: SF-295, 48 h, read-out: Activity.
Experiment [17] in a line: Cytotoxicity against human SNB75 cells assessed as cell growth at 10^-7 M after 48 hrs by SRB assay. The settings on record: SNB-75, 48 h, read-out: Activity.
Another experiment relates to HT-29. Nature of the experiment: Cytotoxicity against human HT-29 cells assessed as cell growth at 10^-6 M after 48 hrs by SRB assay. The note with it: HT-29, 48 h, read-out: Activity.
The subject of another experiment is 786-0. The experiment is described as follows: Cytotoxicity against human 786-0 cells assessed as cell growth at 10^-4 M after 48 hrs by SRB assay. The settings on record: 786-0, 48 h, read-out: Activity.
The nature of experiment [18]: Cytotoxicity against human HL-60(TB) cells assessed as cell growth at 10^-8 M after 48 hrs by SRB assay. The settings on record: HL-60, 48 h, read-out: Activity.
Experiment [19] deals with M14. Nature of the experiment: Cytotoxicity against human M14 cells assessed as cell growth at 10^-6 M after 48 hrs by SRB assay. The settings on record: M14, 48 h, read-out: Activity.
Experiment [20] in a line: Cytotoxicity against human UACC62 cells assessed as cell growth at 10^-6 M after 48 hrs by SRB assay. The note with it: UACC-62, 48 h, read-out: Activity.
Experiment [21] in a line: Cytotoxicity against human Hs 578T cells assessed as cell growth at 10^-6 M after 48 hrs by SRB assay. The note with it: read-out: Activity.
Experiment [22] concerns KM12. Nature of the experiment: Cytotoxicity against human KM12 cells assessed as cell growth at 10^-5 M after 48 hrs by SRB assay. The note with it: KM12, 48 h, read-out: Activity.
Experiment [23] in a line: Cytotoxicity against human SF539 cells assessed as cell growth at 10^-5 M after 48 hrs by SRB assay. The settings on record: SF-539, 48 h, read-out: Activity.
Experiment [24] can be described thus: Cytotoxicity against human SNB19 cells assessed as cell growth at 10^-5 M after 48 hrs by SRB assay. The settings on record: SNB-19, 48 h, read-out: Activity.
A short description of experiment [25]: Cytotoxicity against human HOP62 cells assessed as cell growth at 10^-8 M after 48 hrs by SRB assay. The settings on record: HOP-62, 48 h, read-out: Activity.
Experiment [26] in a line: Cytotoxicity against human COLO205 cells assessed as cell growth at 10^-8 M after 48 hrs by SRB assay. The settings on record: COLO 205, 48 h, read-out: Activity.
Experiment [27] can be described thus: Cytotoxicity against human SF539 cells assessed as cell growth at 10^-8 M after 48 hrs by SRB assay. The note with it: SF-539, 48 h, read-out: Activity.
A short description of experiment [28]: Cytotoxicity against human IGROV1 cells assessed as cell growth at 10^-8 M after 48 hrs by SRB assay. The note with it: IGROV-1, 48 h, read-out: Activity.
Experiment [29] can be described thus: Cytotoxicity against human MOLT4 cells assessed as cell growth at 10^-7 M after 48 hrs by SRB assay. The note with it: MOLT-4, 48 h, read-out: Activity.
Experiment [30] in a line: Cytotoxicity against human NCI-ADR-RES cells assessed as cell growth at 10^-5 M after 48 hrs by SRB assay. The settings on record: read-out: Activity.
Experiment [31] relates to MDA-MB-231. The experiment is described as follows: Cytotoxicity against human MDA-MB-231 cells assessed as cell growth at 10^-5 M after 48 hrs by SRB assay. The settings on record: MDA-MB-231, 48 h, read-out: Activity.
The test system of experiment [32] is SR. Nature of the experiment: Cytotoxicity against human SR cells assessed as cell growth at 10^-4 M after 48 hrs by SRB assay. The note with it: read-out: Activity.
The next experiment concerns NCI-H322M. Nature of the experiment: Cytotoxicity against human NCI-H322M cells assessed as cell growth at 10^-4 M after 48 hrs by SRB assay. The settings on record: read-out: Activity.
Experiment [33] relates to KM12. The experiment is described as follows: Cytotoxicity against human KM12 cells assessed as cell growth at 10^-4 M after 48 hrs by SRB assay. The note with it: KM12, 48 h, read-out: Activity.

For 2 compounds, growth results are on record in ChEMBL document CHEMBL3774317, “Design and synthesis of novel tamoxifen analogues that avoid CYP2D6 metabolism” (Eur J Med Chem, 2016).

`CCCCCCCCCC(=O)Oc1ccc(/C(=C(/C)c2ccccc2)c2ccc(OCCN3CCCC3)cc2)cc1`: the growth at 0.05 µM is 98% in experiment [1]; 95% in the experiment on U-251; 98% in the experiment with Malme-3M; 94% in the experiment on M14 [2]; 100% in the experiment with SK-MEL-28; 96% in the experiment with ACHN. For the same compound, the growth at 50 µM in [3] is -91%. The growth at 0.5 µM in [4] was 68%; with MDA-MB-231 [5], 96%. The growth at 5 µM is 74% in the experiment on EKVX; 72% in [6]; 100% in the experiment on SK-MEL-2; 101% in experiment [12]; 82% in [13]; 88% in experiment [14]. For the same compound, the growth at 0.005 µM in the experiment with SR [7] amounted to 99%; in [8] it was 98%; in experiment [9] it was 96%; in experiment [10], 100%; with MDA-MB-231 [11] it was 99%; in the experiment on T47D, 69%.

Take `C/C(=C(/c1ccc(O)cc1)c1ccc(OCCN2CCCC2)cc1)c1ccccc1`: the growth at 0.1 µM in the experiment on KM12 [15] came out at 100%; in [16], 94%; in experiment [17] it was 83%; in experiment [29], 101%. Also, the growth at 1 µM with HT-29 amounted to 67%; with M14 [19] it was 91%; in experiment [20], 106%; in experiment [21] it was 95%. In addition, the growth at 100 µM with 786-0 was -85%; with SR [32], -66%; in the experiment on NCI-H322M it was -91%; with KM12 [33], -89%. In addition, the growth at 0.01 µM in experiment [18] is 97%; in [25], 90%; in [26] it was 93%; in [27] it was 89%; in experiment [28], 106%. For the same compound, the growth at 10 µM with KM12 [22] was 12%; in experiment [23], -67%; in [24], -10%; in [30], 25%; in the experiment with MDA-MB-231 [31] it was -10%.
